# Assay results as given in US10407388B2, “Thiourea derivatives as activators of RORα and pharmaceutical composition containing same” (SEOUL NATIONAL UNIVERSITY R & DB FOUNDATION, priority 2011, dated 2019).
# What was measured:
# [1] = test system: HepG2 cells; assay: Lipid accumulation in hepatocytes, Nile red staining and flow cytometry; format: cell-based, human; conditions: 50 μM with oleic acid/palmitic acid mixture, 3 days; FIGS. 10a and 10b
# Experimental: HepG2 cells (3×10^5 cells/well) were seeded on a 60-dish and cultured overnight in a DMEM containing 10% FBS. The HepG2 cells were maintained at 37° C. in a humidification thermostat containing 5% CO2 and 95% air. After culturing, the HepG2 cells were treated with 50 μM JC1-40 (or JC1-42) and, as a lipid generation inducing material, a fatty acid mixture prepared by mixing 0.5 mM oleic acid and 0.5 mM palmitic acid in a ratio of 2:1 (5 mM oleic acid and 5 mM palmitic acid were mixed in a medium containing 1% fatty acid-free bovine serum albumin (BSA) and diluted to the final concentration prior to use) for 3 days. After 3 days, cell lysates were collected, and stained with 1 μg/ml of Nile red at room temperature for 15 minutes, and the concentration of triglycerides was measured by a flow cytometry method using a FACSCalibur™ machine (BD Biosciences). Fluorescence emission was measured at a wavelength between 500 nm and 580 nm. The results thereof are illustrated in FIGS. 10a and 10b.
# [2] = test system: SREBP-1; assay: Expression of SREBP-1 protein in liver of mice with high-fat diet-induced fatty liver, western blotting; format: in vivo; conditions: oral, 10 mg/kg/day or 30 mg/kg/day for 2 days; liver tissue; FIG. 11b
# Experimental: (§1) 3 days after the diet was fed, the mice were fed the high-fat diet containing safflower oil while being orally administered JC1-40 and JC1-42, which had been diluted with 0.5% carboxymethyl cellulose, at a dose of 10 mg/kg/day or 30 mg/kg/day for 2 days. 5 days after the diet was fed, the mice were sacrificed to extract liver tissues therefrom, and the expression of proteins was analyzed by western blotting analysis. That is, after treatment, each liver tissue was homogenized in a lysis buffer containing 50 mM NaCl, 50 mM Tris pH 7.4, 5 mM EDTA, 1% NP-40, and a protease inhibitor, and then centrifuged to obtain a total cell lysate. 20 μg to 30 μg of proteins collected from the total cell lysate was subjected to 7% to 9% SDS-PAGE, and was transferred to a polyvinylidene difluoride membrane (Millipore, Bedford, Mass., USA). […] Immunoreactive proteins were detected with Amersham ECL western blotting detection reagents using an HRP-conjugated secondary antibody (Zymed Lab). Protein concentrations were quantified by BCA (Pierce) analysis, and the expression of α-tubulin was monitored as a control. […]
# [3] = test system: A7r5; assay: Proliferation of vascular smooth muscle cells, MTT; format: cell-based, rat; conditions: 100 μM for 2 days, 4 days, or 6 days, FIG. 14
# Experimental: A7r5, which is a rat smooth muscle cell line, was purchased from ATCC. A7r5 was cultured in 5% CO2 using a DMEM supplemented with 10% FBS, penicillin (100 U/ml), and streptomycin (100 μg/ml) prior to use in an experiment. A7r5 cells (2×10^3 cells/well) were seeded on a 96-well culture plate and cultured overnight. After culturing, the A7r5 cells were treated with each of the JC1-40 and JC1-42 compounds at a concentration of 100 μM for 2 days, 4 days, or 6 days. Subsequently, the A7r5 cells were treated with MTT (3-4,5-dimethylthiazol-2-yl)-2,5-diphenyl-tetrazolium bromide) (2 mg/ml, 50 μl) for 4 hours, and then the medium was removed and 200 μl of DMSO was added to the plate. The contents in the plate were mixed for 5 minutes, and then absorbance was measured at 595 nm. Data was attained as the mean and SD for the three independent experimental results, and the results thereof are illustrated in FIG. 14.
# [4] = test system: LXRα; assay: Expression of LXRα protein in liver of mice with high-fat diet-induced fatty liver, western blotting; format: in vivo; conditions: oral, 10 mg/kg/day or 30 mg/kg/day for 2 days; liver tissue; FIG. 11b
# Experimental: as §1
# [5] = test system: ACC; assay: Phosphorylation of ACC in liver of mice with high-fat diet-induced fatty liver, western blotting; format: in vivo; conditions: oral, 10 mg/kg/day or 30 mg/kg/day for 2 days; liver tissue; FIG. 11b
# Experimental: as §1
# [6] = test system: FAS; assay: Expression of FAS protein in liver of mice with high-fat diet-induced fatty liver, western blotting; format: in vivo; conditions: oral, 10 mg/kg/day or 30 mg/kg/day for 2 days; liver tissue; FIG. 11b
# Experimental: as §1
# [7] = test system: high-fat diet-induced fatty liver mice model; assay: Blood biochemical analysis in high-fat diet-induced fatty liver mice model; format: in vivo; conditions: FIG. 13; for amount of blood triglycerides, which had been increased by the high-fat diet / amount of blood glucose / amount of total blood cholesterol: oral, 10 mg/kg/day or 30 mg/kg/day for 2 days; for amount of blood glucose / amount of total blood cholesterol: versus high-fat diet group
# Experimental: 3 days after the diet was fed, the mice were fed the high-fat diet containing safflower oil while being orally administered JC1-40 and JC142, which had been diluted with 0.5% carboxymethyl cellulose, at a dose of 10 mg/kg/day or 30 mg/kg/day for 2 days. 5 days after the diet was fed, the mice were sacrificed to collect blood, and serum samples were collected therefrom.
# [8] = 30 mg/kg/day, compared to the high-fat diet group
SMILES,lipid accumulation in hepatocytes [1],"expression of SREBP-1 protein, which had been increased by the high-fat diet [2]",proliferation of vascular smooth muscle cells [3],"expression of LXRα protein, which had been increased by the high-fat diet [4]",phosphorylation of ACC [5],"expression of FAS protein, which had been increased by the high-fat diet [6]","GOP [7, 8]","GPT [7, 8]","amount of high-density lipoproteins [7, 8]","amount of blood triglycerides, which had been increased by the high-fat diet [7]",amount of blood glucose [7],amount of total blood cholesterol [7]
"CNC(=S)NCc1ccc(OCc2ccccc2)cc1 [Compound 40, 1-(4-benzyloxy-benzyl)-3-methyl-thiourea]",significantly decreased,decreased,decreased,decreased,increased,decreased,decreased,decreased,increased,decreased,not different from those in the high-fat diet group,not different from those in the high-fat diet group
"CNC(=S)NCc1ccc(Oc2ccccc2)cc1 [Compound 42, 1-(4-phenoxy-benzyl)-3-methyl-thiourea]",significantly decreased,decreased,decreased,decreased,increased,decreased,–,–,increased,decreased,not different from those in the high-fat diet group,not different from those in the high-fat diet group
